Experiments:
[1] = Targeted metabolomics for PCS after L-tyrosine feeding; assay type: in vivo, mouse
Protocol: Mice were fed with L-tyrosine in drinking water (100 mg/kg/day) for 14 days, after which faeces were collected. BALF samples were collected after HDM immunization as per FIG. 1. […] Data represent samples from one experiment. All data are presented as mean values+/−SEM.
Mice received water as a control or L-tyrosine (reagent grade, ≥98% Sigma-Aldrich, St. Louis, Mo.) resuspended in drinking water under sterile conditions at the concentration of 100 mg/kg/day or 500 mg/kg/day (based on the assumption of a mouse consuming 4 ml of water daily). All mice received the treatment 2 weeks prior and throughout the experiment. […] Control mice received 200 μl of saline. For experiments employing antibiotic treatment, 3-week old mice were treated with a combination enrofloxacin (10 mg/kg/day) and amoxicillin with clavulanic acid (1 mg/kg/day) for one week, followed by one week of only amoxicillin with clavulanic acid (1 mg/kg/day). Then, mice were then put on L-tyrosine diet in drinking water for two weeks followed by HDM exposure as before. […]
25 μL of plasma samples were extracted with 100 μL of chilled methanol containing internal standard (PCS-d4 at 500 ng/ml plasma concentration), shaken on ice for 30 min and centrifuged at 4° C. for 10 min. […] Peak integration and quantitation were performed using Tracefinder 4.1 application (Thermo Scientific).

[2] = system: pulmonary DCs; test: DC:T cell co-culture (priming of naive OT-II cells / restimulation of effector Th cells); assay type: cell-based, mouse; conditions: pulmonary DCs from L-tyrosine-treated mice
Source text: Data from a-c are pooled from two experiments (a, b, n=10 biologically independent samples per group; c, n=9 biologically independent samples per group). Data in d represent technical replicates (n=6 left panel, n=5 right panel) from one experiment. Data in e are pooled from 3 independent experiments (n=6 per group). Data in f are pooled from two independent experiments (n=5 biologically independent samples per group). Data in g are pooled from two independent experiments (n=9 biologically independent samples per group). Data in h are pooled from two independent experiments (n=4 biologically independent samples per group). All data are presented as mean values±s.e.m. Statistical significance for a-d, f, g, was evaluated with unpaired Student's t-test (in the case of Gaussian distribution) or Mann-Whitney test (non-Gaussian distribution). Statistical significance for e, h was determined with One-Way analysis of variance (ANOVA) with Dunnett correction for multiple comparisons. Data distribution was assessed with D'Agostino & Pearson normality test. *p≤0.05, **p≤0.01, ***p≤0.001, ****p≤0.0001
DC: T cell co-cultures were set-up by sorting CD11c+ SiglecF− (DCs) and CD4+CD44+ T cells from the lungs of HDM-immunized mice on FACSAria III (BD Biosciences™, San Jose, Calif.). […]

N[C@@H](Cc1ccc(O)cc1)C(=O)O [L-tyrosine]
PCS concentrations in the faeces ([1]; L-tyrosine in drinking water 100 mg/kg/day for 14 days): increase | PCS concentrations in the airways (BALF) ([1]; L-tyrosine in drinking water 100 mg/kg/day, BALF after HDM immunization): increase | capacity of DCs to restimulate in vivo-primed effector T helper cells into an IL-13-producing subset [2]: impaired | capacity of DCs to prime naive CD4+ T cells into an IL-13-producing subset ([2]; OT-II cells): impaired

Reference: patent publication US20230045151A1, “COMPOSITIONS AND METHODS” (MONASH UNIVERSITY, priority 2020, published 2023)
